Results published in ChEMBL document CHEMBL5303304, “EUbOPEN Chemogenomics Library - IncuCyte” (2023).

Columns and labels:
Format in all cases: toxicity, cell-based
[1] = tested on: HEK-293T; experiment: Incucyte cell viability with HEK293T; settings: human, 10 µM, compound concentration 10 uM
[2] = tested on: Fibroblast; experiment: Incucyte cell viability with human fibroblast; settings: 10 µM, compound concentration 10 uM
[3] = tested on: U2OS; experiment: Incucyte cell viability with U2OS; settings: human, 10 µM, compound concentration 10 uM
Note: unitless GR value; below 1 slowed growth and below 0 cell loss.

Row | Structure (SMILES) | Growth Rate ([1]; 6 h, replicate number 1) | Growth Rate ([1]; 6 h, replicate number 2) | Growth Rate ([1]; 12 h, replicate number 1) | Growth Rate ([1]; 12 h, replicate number 2) | Growth Rate ([1]; 18 h, replicate number 1) | Growth Rate ([1]; 18 h, replicate number 2) | Growth Rate ([1]; 24 h, replicate number 1) | Growth Rate ([1]; 24 h, replicate number 2) | Growth Rate ([3]; 6 h, replicate number 1) | Growth Rate ([3]; 6 h, replicate number 2) | Growth Rate ([3]; 12 h, replicate number 1) | Growth Rate ([3]; 12 h, replicate number 2) | Growth Rate ([3]; 18 h, replicate number 1) | Growth Rate ([3]; 18 h, replicate number 2) | Growth Rate ([3]; 24 h, replicate number 1) | Growth Rate ([3]; 24 h, replicate number 2) | Growth Rate ([2]; 12 h, replicate number 1) | Growth Rate ([2]; 0 h, replicate number 2) | Growth Rate ([2]; 6 h, replicate number 1) | Growth Rate ([3]; 0 h, replicate number 2) | also measured
1 | COC(=O)c1ccc2c(c1)NC(=O)/C2=C(\Nc1ccc(-c2nccn2C)cc1)c1ccccc1 | -0.53 | -0.73 | -0.37 | -0.51 | -0.26 | -0.37 | -0.09 | -0.27 | 0.57 | 0.77 | 0.53 | 0.61 | 0.46 | 0.62 | -0.6 | 0.46 |  |  |  |  | Growth Rate ([2]; 0 h, replicate number 1): -1; Growth Rate ([3]; 0 h, replicate number 1): -1
2 | O=C1NCc2ccc3c(-c4cccc(Cl)c4)c[nH]c3c21 | -0.5 |  | -0.49 | -0.24 | -0.21 | -0.13 | -0.06 | -0.07 | -0.34 | 0.05 | -0.32 | -0.15 | -0.16 | -0.11 | -0.1 | -0.06 | -1 |  |  |  | Growth Rate ([2]; 6 h, replicate number 2): -1; Growth Rate ([2]; 12 h, replicate number 2): -0.89; Growth Rate ([2]; 18 h, replicate number 1): -0.89; Growth Rate ([2]; 18 h, replicate number 2): -0.75; Growth Rate ([2]; 24 h, replicate number 1): -0.46; Growth Rate ([2]; 24 h, replicate number 2): -0.57
3 | O=c1ccc2c(OCCCCOc3ccccc3)c3ccoc3cc2o1 |  |  |  |  |  |  |  |  | 0.73 | 0.99 |  |  | 0.99 |  | 0.92 |  |  |  |  |  | Growth Rate ([1]; 0 h, replicate number 1): 0.49; Growth Rate ([1]; 0 h, replicate number 2): 0.37; Growth Rate ([2]; 12 h, replicate number 2): 0.95; Growth Rate ([2]; 24 h, replicate number 1): 0.92; Growth Rate ([3]; 0 h, replicate number 1): 0.26
4 | COc1cc(-c2cc(-c3cccc(O)c3)cnc2N)cc(OC)c1OC | -0.66 | 0.38 | -0.58 | 0.41 | -0.43 | 0.33 | -0.24 | 0.42 |  |  | 0.89 | 0.96 | 0.73 | 0.85 | 0.75 | 0.86 | -1 | -0.98 | -0.21 |  | Growth Rate ([2]; 0 h, replicate number 1): 0.1; Growth Rate ([2]; 18 h, replicate number 1): 0.59
5 | CC(C)CC(=O)Nc1cncc(-c2ccc3[nH]nc(-c4nc5c(-c6cccc(F)c6)cncc5[nH]4)c3c2)c1 [LORECIVIVINT] | -0.99 | -0.98 | -0.89 | -0.78 | -0.67 | -0.58 | -0.41 | -0.44 | -0.98 | -0.82 | -0.71 | -0.62 | -0.52 | -0.47 | -0.44 | -0.42 |  | -0.25 | -1 | -0.42 | Growth Rate ([2]; 0 h, replicate number 1): -0.18; Growth Rate ([2]; 6 h, replicate number 2): -0.98; Growth Rate ([2]; 12 h, replicate number 2): -0.68; Growth Rate ([2]; 18 h, replicate number 2): -0.37; Growth Rate ([2]; 24 h, replicate number 2): -0.13
6 | COc1c(C(=O)/C=C/c2ccccc2)c(O)c(OC)c2occc12 | -0.45 | -0.38 | 0.27 | 0.28 | 0.86 | 0.53 |  | 0.75 | 0.86 | 0.76 | 0.64 | 0.6 | 0.71 | 0.55 | 0.78 | 0.83 | -0.31 |  |  | -0.14 | Growth Rate ([2]; 6 h, replicate number 2): -0.26; Growth Rate ([2]; 12 h, replicate number 2): 0.35; Growth Rate ([2]; 18 h, replicate number 1): 0; Growth Rate ([2]; 18 h, replicate number 2): 0.84; Growth Rate ([2]; 24 h, replicate number 1): 0.86; Growth Rate ([2]; 24 h, replicate number 2): 0.71; Growth Rate ([3]; 0 h, replicate number 1): -0.43
7 | CCc1c(-c2ccc3[nH]ncc3c2)cnc(N)c1-c1ccc(O)cc1 | 0.85 | 0.91 | 0.8 | 0.9 |  | 0.91 | 0.99 | 0.88 |  | 0.84 |  |  |  |  | 0.92 |  |  | -0.31 | 0.91 | -0.93 | Growth Rate ([1]; 0 h, replicate number 1): -0.12
8 | O=C1CCCN1CCNc1nc(Nc2ccc(Cl)c(Cl)c2)ncc1C(F)(F)F |  |  |  |  | 0.89 |  | 0.78 |  | 0.32 |  | 0.24 | -0.25 | 0.25 |  | 0.37 |  | 0.62 |  |  |  | Growth Rate ([1]; 0 h, replicate number 1): -0.87; Growth Rate ([1]; 0 h, replicate number 2): -1; Growth Rate ([2]; 6 h, replicate number 2): 0.95; Growth Rate ([2]; 12 h, replicate number 2): 0.41; Growth Rate ([2]; 18 h, replicate number 1): 0.65; Growth Rate ([2]; 18 h, replicate number 2): 0.48; Growth Rate ([2]; 24 h, replicate number 1): 0.64; Growth Rate ([2]; 24 h, replicate number 2): 0.45; Growth Rate ([3]; 0 h, replicate number 1): -1
9 | Cc1c(CCC(=O)O)cccc1NC(=O)[C@@H](c1ccc(-c2cncc(Cl)c2)c(F)c1)C1CCCC1 |  | 0.98 |  |  |  |  |  |  | 0.95 |  | 0.73 |  |  |  |  |  |  |  |  |  | Growth Rate ([1]; 0 h, replicate number 1): -0.19; Growth Rate ([1]; 0 h, replicate number 2): -0.54; Growth Rate ([2]; 6 h, replicate number 2): -0.66; Growth Rate ([2]; 12 h, replicate number 2): 0.3; Growth Rate ([2]; 18 h, replicate number 2): 0.9; Growth Rate ([2]; 24 h, replicate number 2): 0.87; Growth Rate ([3]; 0 h, replicate number 1): 0.68
10 | Cc1cccc(-c2nn(C(=S)Nc3ccccc3)cc2-c2ccnc3ccccc23)n1 |  |  |  |  |  |  |  |  | 0.88 | 0.81 |  |  |  | 0.98 |  | 0.88 | -1 | -1 | 1 | -0.94 | Growth Rate ([1]; 0 h, replicate number 1): 0.78
11 | COc1cc(N)c(Cl)cc1C(=O)NC1CN2CCC1CC2.Cl (stereo unspecified) | -0.18 | -0.12 | 0.31 | 0.19 | 0.18 | 0.29 | 0.31 | 0.38 | 0.67 | 0.95 | 0.95 |  |  | 1 |  |  | 0.48 | -0.73 | -0.82 | -0.2 | Growth Rate ([2]; 6 h, replicate number 2): -0.28
12 | CCOC(=O)c1ccc(N2C(=O)C(O)=C(C(=O)c3ccc(OC)cc3)C2c2ccc(F)cc2)cc1 (stereo unspecified) | 0.75 |  |  |  |  | 0.83 |  | 0.85 |  | 0.87 |  | 0.89 | 0.96 | 1 |  | 0.74 | -1 | -0.75 | 0.14 | 0.5 | Growth Rate ([1]; 0 h, replicate number 2): 0.85; Growth Rate ([2]; 18 h, replicate number 1): -0.29; Growth Rate ([3]; 0 h, replicate number 1): 0.54
13 | OC(CN1CCC(Cc2ccc(F)cc2)CC1)c1ccc(Cl)cc1 (stereo unspecified) [ELIPRODIL] |  |  | 0.57 |  | 0.88 |  |  |  |  |  |  | 0.95 |  |  |  |  | -0.13 | -0.95 | -0.61 | -0.72 | Growth Rate ([1]; 0 h, replicate number 2): 0.62; Growth Rate ([2]; 6 h, replicate number 2): 0.5
14 | Nc1ccc(S(=O)(=O)Nc2ccnn2-c2ccccc2)cc1 [SULFAPHENAZOLE] | 0.11 |  | 0.6 |  | 0.44 | 0.98 | 0.45 |  | 0.27 | 0.05 | 0.83 | 1 | 0.83 | 0.88 | 0.86 | 0.91 | -1 |  | -0.25 | -0.29 | Growth Rate ([2]; 0 h, replicate number 1): -0.67; Growth Rate ([2]; 24 h, replicate number 1): 0.6
15 | Oc1ccc(-c2nc(-c3ccncc3)c(-c3ccc(F)cc3)[nH]2)cc1 [SB-202190] |  |  |  |  |  |  |  |  |  |  |  |  |  |  |  |  | -0.11 | -0.18 | 0.11 | -0.95 | Growth Rate ([1]; 0 h, replicate number 1): 0; Growth Rate ([1]; 0 h, replicate number 2): -0.17; Growth Rate ([2]; 12 h, replicate number 2): 0.62; Growth Rate ([3]; 0 h, replicate number 1): -0.88
16 | O=C(Nc1ccnc(NC(=O)C2CC2)c1)c1c(Cl)cccc1Cl |  |  |  |  |  |  |  |  | 0.46 |  | -0.05 |  | 0.81 | 0.93 | 0.98 | 0.84 |  | -0.81 |  |  | Growth Rate ([1]; 0 h, replicate number 1): -0.99; Growth Rate ([2]; 0 h, replicate number 1): -0.14
